The subject of this assay is lung ILCs. As to the kind of experiment: culture of sort-purified lung ILCs with IL-7, IL-33 or IL-25+NMU with or without CGRP (qPCR, LegendPlex, intracellular cytokine staining). In kind it is cell-based, mouse. Here is the method: ILC in vitro culture. For in vitro experiments 5,000 ILCs/well were cultured in a 96 well round bottom plate with 20 ng/ml IL-7 (R&D Systems), 200 ng/ml IL-25 (R&D Systems) or 20 ng/ml, 2 ng/ml or 0.2 ng/ml IL-33 (BioLegend) with or without 1 μg/ml Neuromedin U (US Biological). In some cases purified CD90.2^+ lung cells were first labeled with CellTrace Violet (Thermo Fisher Scientific), then sorted as described above, and cultured for 3 days under the indicated conditions.
Quantitative real-time PCR. RNA was isolated using RNeasy Plus Mini Kit (Qiagen) and reverse transcribed to cDNA with iScript cDNA Synthesis Kit (Bio-Rad). Gene expression was analyzed by quantitative real-time PCR on a ViiA7 System (Thermo Fisher Scientific) using TaqMan Fast Advanced Master Mix (Thermo Fisher Scientific) with the following primer/probe sets: Il5 (Mm00439646_m1), Il13 (Mm00434204_m1), Il17rb (Mm00444709_m1), Nmur1 (Mm04207994_m1), Nmur2 (Mm00600704_m1), Nmu (Mm00479868_m1) and Actb (Applied Biosystems). Expression values were calculated relative to Actb detected in the same sample by duplex qPCR.
Cytokine quantification. Cytokine concentrations in BAL fluid, lung and supernatant of in vitro ILC cultures were analyzed by the LegendPlex Mouse Th Cytokine Panel (13-plex) (BioLegend) according to the manufacturer's instructions and analyzed on a FACS Calibur (BD Biosciences).
Culture of innate lymphoid cells. Sort-purified innate lymphoid cells (ILCs) were cultured under sterile conditions in complete medium in a humidified incubator at 37° C. and 10% CO2. ILCs were plated at a density of 3,000-5,000 ILCs per well in a 96 well round-bottom plate in cell culture medium with 20 ng/ml IL-7. Depending on the experiment, different combinations of 200 ng/ml IL-25, 200 ng/ml IL-33, 1 ug/ml NMU and 100 nM CGRP were added either at start or after overnight culture with 20 ng/ml IL-7. […]
For flow cytometric analysis, lung cells were transferred into a 96 well V-bottom plate and stained with surface antibodies for 20 min at 4° C. in the dark. Cells were washed twice with DPBS containing 2% fetal bovine serum and transferred into 1.2 ml tubes for analysis by flow cytometry. For intracellular cytokine staining, cells were incubated in complete cell culture medium with 50 ng/ml phorbol 12-myristate 13-acetate (Sigma-Aldrich), 1 uM ionomycin (Sigma-Aldrich) and GolgiStop (Cat #554724; BD Biosciences) in a humidified incubator at 37° C. and 10% CO2. After 5 hours, cells were transferred into 96 well V-bottom plate, stained with Fixable Viability Dye eFluor 506 (Cat #65-0866-14; Thermo Fisher) and surface antibodies for 20 min at 4° C. in the dark and washed twice with DPBS containing 2% fetal bovine serum. Then, cells were incubated with BD Cytofix/Cytoperm Buffer (Cat #51-2090KZ; BD Biosciences) for 20 min, followed by a wash with BD Perm/Wash Buffer (Cat #51-2091KZ; BD Biosciences). Subsequently, cells were incubated with antibodies targeting intracellular proteins diluted in BD Perm/Wash Buffer for 20 min and after two wash steps, transferred into 1.2 ml tubes for analysis by flow cytometry. For ki67 staining, cells were stained for surface antibodies as described above, fixed with a solution of Fixation/Permeabilization Concentrate (Cat #00-5123-43; Invitrogen) and Fixation/Perm Diluent (Cat #00-5223-56; Invitrogen) for 20 min, washed with Permeabilization Buffer (Cat #00-8333-56; Invitrogen). Then, cells were incubated with ki67 antibody diluted in Permeabilization Buffer for 20 min, washed and transferred into FACS tubes. Cells were analyzed on a BD LSRFortessa (BD Biosciences) flow cytometer with 5 lasers (355 nm, 405 nm, 488 nm, 561 nm and 640 nm). Data was analyzed using FlowJo v10.5.0 software and cell populations were gated as described previously (Wallrapp 2017).
RNA isolation and cDNA synthesis. […]
In general terms: Quantitative PCR measures a nucleic acid by following its amplification.

Setting [1] is: IL-7+CGRP vs IL-7 alone, 6 hours.
[2] abbreviates: IL-33+CGRP vs IL-33 alone, 6 hours.
[3] abbreviates: IL-33+CGRP vs IL-33 alone, 3 days.
The mark [4] stands for this setting: IL-33+CGRP vs IL-33 alone, 3 days culture.

Entries after “also recorded” stand apart in the source; their conditions may differ.

For the substance “CGRP: neuropeptide calcitonin gene-related peptide (encoded by Calca), ligand of the Ramp1/Calcrl receptor; given at 100 nM in vitro, 6.65 ug nasally”, under setting [1], the “Il5 expression in ILC2s (qPCR)” value is “upregulated”, the “Il13 expression in ILC2s (qPCR)” value was “downregulated” and the “amphiregulin (Areg) expression in ILC2s (qPCR)” value is on record as “trend of increased expression”. Moreover, where the note is “IL-25+NMU+CGRP vs IL-25+NMU, 3 days”, the “type 2 cytokine (IL-5, IL-13) production at mRNA and protein level in ILCs” value is given as “significantly reduced”. Under setting [2], the “Areg expression in ILC2s (qPCR)” value is recorded as “significantly increased”, the “Il5 expression in ILC2s (qPCR)” value is “significantly increased” and the “Il13 expression in ILC2s (qPCR)” value is “significantly decreased”. Also, under setting [3], the “IL-13 produced per cell (MFI)” value is reported as “less”, the “amount of IL-5 expressed per cell (MFI)” value is “significant decreases”, the “frequency of IL-5-producing ILCs (flow cytometry)” value is recorded as “significant decreases” and the “frequency of IL-13+ ILCs (flow cytometry)” value is given as “lower”. In addition, under setting [4], the “Areg expression in ILCs (qPCR)” value is “increased”; the “IL-5 production at RNA and protein level in ILCs” value was “reduces; also recorded: significantly reduced”; the “IL-13 production at RNA and protein level in ILCs” value is “reduces; also recorded: significantly reduced; also recorded: remains repressed”. Further, the “IL-5 protein production (intracellular cytokine staining)” value (short-term (8 hours) CGRP+IL33 vs IL-33 alone) was “induced”. The “frequency of IL-13-positive ILC2s (intracellular cytokine staining)” value (short-term (8 hours) treatment with CGRP+IL33) was determined as 2%.

These data come from patent US20210386829A1, “COMPOSITIONS AND METHODS FOR MODULATING CGRP SIGNALING TO REGULATE INNATE LYMPHOID CELL INFLAMMATORY RESPONSES” (The Broad Institute, Inc., priority 2018, published 2021).
